For orientation: LC50 means the concentration lethal to half of the exposed cells or organisms.

The record followed here is patent publication US11591309B2, “Manufacturing method for and insecticidal compositions comprising thiocyclam hydrochloride” (Arysta L[…] America, LLC, priority 2016, dated 2023).

Type in all cases: in vivo
Data set [1] has as its system Aphids Myzus persicae—larvae. Kind of data set: Aphid larvae on radish, boom sprayer application (IRAC no 019 adapted), mortality. From the text:
Aphids Myzus persicae—larvae • Study based on IRAC no 019 methods, application method adapted • Plant: radish • Application on petri dish with larvae with a boom sprayer apparatus • Assessment of mortality 3 and 4 days after application • a.i. refers to active ingredient
(§1) LD stands for “Lethal Dose”. LD50 is the amount of an ingested substance that kills 50 percent of a test sample and […] is the lethal dose that kills 90 percent of the test sample.

Data set [2] has as its system Codling moth, Cydiapomonella—neonate larvae. Kind of data set: Codling moth neonate larvae bioassay by diet incorporation, mortality. Conditions: for LC50: Cydia pomonella, 48 h; for LC50 / LC90: mortality 2 days after treatment (D + 2), diet incorporation. From the text: Codling moth, Cydiapomonella—neonate larvae • Bioassay by diet incorporation • Mortality assessment 2 days after treatment • a.i. refers to active ingredient
(§2) LC stands for “Lethal Concentration”. LC values refer to the concentration of a chemical required to kill a certain proportion of a population of pests. The concentration of the chemical that kills 50 percent of the pests during the observation period is the LC50 value and a concentration that kills 90 percent of a population is LC90.

Data set [3] has as its system White flies, Trialeurodes vaporarium—larvae. The data set can be described thus: White fly larvae on bean, boom sprayer application (IRAC no 015 adapted), mortality. The following applies: for LD50 / LD90: boom sprayer.
Excerpt: White flies, Trialeurodes vaporarium—larvae • Study based on IRAC no 015 methods, stage and application method adapted • Plant: bean • Application: On the petri dish with larvae with a boom sprayer apparatus • Assessment of mortality at 7, 9 and 14 days after application • a.i. refers to active ingredient
as §1

The test system of data set [4] is Soybean looper, Chrysodeixis includens—3rd larval stage. The data set can be described thus: Soybean looper 3rd larval stage bioassay by diet surface incorporation, mortality.
Excerpt: Soybean looper, Chrysodeixis includens—3rd larval stage • Bioassay by diet surface incorporation • Mortality assessment 3 days after treatment • a.i. refers to active ingredient
as §2

[5] abbreviates: mortality 3 days after treatment (D + 3), diet surface incorporation.

For `CN(C)C(CSC(N)=O)CSC(N)=O` [Cartap, S, S-[2-(dimethylamino)-1,3-propanediyl] dicarbamothioate, reference compound], the LD50 in data set [1] (D +3, radish) was <18.18 g a.i./ha; in data set [1] (D +4, radish) it was <18.18 g a.i./ha; in data set [3] (D +7, bean) it was 213.7 g a.i./ha; in data set [3] (D +9, bean) it was 15.6 g a.i./ha; in data set [3] (D +14, bean), 10.4 g a.i./ha. Moreover, the LD90 in data set [1] (D +3, radish) is recorded as 36.70 g a.i./ha; in data set [1] (D +4, radish) it was 16 g a.i./ha; in data set [3] (D +7, bean), 2.3 × 10^6 g a.i./ha; in data set [3] (D +9, bean) it was 4,566.3 g a.i./ha; in data set [3] (D +14, bean), 910.4 g a.i./ha. Also, the LC50 in data set [2] worked out at 10.1 µg/mL. The values for the LC90 in data set [2] and in data set [4] (setting [5]) were 104.80 μg of a.i./ml of diet and 908,897 μg of a.i./ml of diet, respectively.
Consider `CN(C)C1CSSSC1.Cl` [Thiocyclam HCl, N,N-dimethyl-1,2,3-trithian-5-ylamine hydrochloride], for which the LD50 in data set [1] (D +3, radish) was determined as 12.04 g a.i./ha; in data set [1] (D +4, radish), 7.66 g a.i./ha; in data set [3] (D +7, bean), 2.22 g a.i./ha; in data set [3] (D +9, bean), 2.23 g a.i./ha; in data set [3] (D +14, bean) it was 0.82 g a.i./ha. Besides, the LD90 in data set [1] (D +3, radish) is recorded as 30.51 g a.i./ha; in data set [1] (D +4, radish), 27.07 g a.i./ha; in data set [3] (D +7, bean), 1,899 g a.i./ha; in data set [3] (D +9, bean), 4,905 g a.i./ha; in data set [3] (D +14, bean) it was 7,910 g a.i./ha. For the same molecule, the 50% lethal concentration (LC50) in data set [2] is 2.57 µg/mL; in data set [4] (72 h, mortality 3 days after treatment (D + 3), diet surface incorporation) it was 8990 µg/mL. The “LC50 and LC90 compared to thiocyclam oxalate” value in data set [2] (example 1, comparison in words) is reported as “significantly lower concentrations than thiocyclam oxalate”. The “times less at LC50 compared to cartap” value in data set [2] (example 1, ratio versus cartap) is listed as “approximately 4 times”. Further, the “times less at LC90 compared to cartap” value in data set [2] (example 1, ratio versus cartap) is “approximately 9 times”. Also, the LC90 in data set [2] is recorded as 10.80 μg of a.i./ml of diet; in data set [4] (setting [5]) it was 251,759 μg of a.i./ml of diet. Moreover, the “LD90 compared to cartap” value in data set [3] (example 4, days 7 and 9) was “lower application concentration compared to cartap”. Moreover, the “LC90 compared to cartap” value in data set [4] (example 2, comparison in words) is on record as “more than three times lower”. Further, in data set [4] (example 2, comparison in words), the “LC90 compared to thiocyclam oxalate” value is listed as “orders of magnitude smaller”. Besides, in data set [4] (example 2, ratio versus cartap), the “times less at LC50 than cartap” value was “approximately 6 times”. In addition, in data set [4] (example 2, ratio versus thiocyclam oxalate), the “times less at LC50 than thiocyclam oxalate” value was “approximately 20 times”.
